Measurements published in patent US6773912B1, “Lantibiotic” (University of Otago, priority 1999, dated 2004).

What was measured:
Type in all cases: cell-based
[1] = system: Streptococcus pyogenes strain FF22; test: Decrease in colony-forming units after mixing cells with salivaricin preparation; settings: partially purified preparation of titre 16; 4 h at 37° C.; exponential Todd Hewitt broth culture cells
Procedure: The inhibitory activity of the salivaricins was determined by measurement of the decrease with time in the number of colony-forming units (CFU) of a suspension of the sensitive indicator streptococcus (Streptococcus pyogenes strain FF22) after mixing the cells with a salivaricin preparation. Twice-washed cells from an exponential Todd Hewitt broth culture of the indicator streptococcus were resuspended in 0.067 M phosphate buffer (pH 6.5) to the original culture volume. Portions of partially purified salivaricin (titre 16 Au/ml) or of phosphate buffer (control) were then mixed with an equal volume of the washed cell suspension and incubation was continued at 37° C. Survivors were determined at intervals by plating suitable 10-fold dilutions (in cold Todd Hewitt broth) of the test and control mixtures on Columbia agar base and incubating at 37° C. for 24 h. Viable counts were expressed as the total number of CFU per ml.

Branhamella catarrhalis = test: Agar surface assay, inhibitory spectrum; settings: 1 tested; 20 ul drops of preparation of titre 16 Ua/ml; 37° C. for 18 h
Procedure: (§1) Salivaricin activity is titrated using an agar surface assay. Drops (20 ul) of two-fold saline dilutions of the sample are assayed against Microoccus luteus T-18 on Columbia agar base. The reciprocal of the highest dilution to produce a definite zone of inhibition of the growth of the indicator lawn is the titre in arbitrary units per ml (Au/ml) of salivaricin activity.
(§2) By contrast the partially purified preparation of salivaricin A2 of titre 16 when tested using under the same conditions killed less than 10% of strain FF22 cells. Further tests of the inhibitory spectra of partially purified salivaricin A2 and salivaricin B preparations were done by using the agar surface assay described above. Drops (20 ul) of a preparation of titre 16 Ua/ml were spotted onto lawn cultures of the test strains that had been freshly inoculated by swabbing the surface of a Columbia agar base plate with a 1/100 dilution in saline of an 18 h Todd Hewitt broth culture of that strain. Production of a definite zone of inhibited test strain growth upon incubation of these plates at 37° C. for 18 h was taken to indicate sensitivity of that strain to the salivaricin.

[2] = system: Corynebacterium diphtheriae; test: Agar surface assay, inhibitory spectrum; settings: 4 tested; 20 ul drops of preparation of titre 16 Ua/ml; 37° C. for 18 h
Procedure: as §1, §2

Escherichia coli = test: Agar surface assay, inhibitory spectrum; settings: 2 tested; 20 ul drops of preparation of titre 16 Ua/ml; 37° C. for 18 h
Procedure: as §1, §2

Lactobactillus casei = test: Agar surface assay, inhibitory spectrum; settings: 2 tested; 20 ul drops of preparation of titre 16 Ua/ml; 37° C. for 18 h
Procedure: as §1, §2

Staphylococcus aureus = test: Agar surface assay, inhibitory spectrum; settings: 4 tested; 20 ul drops of preparation of titre 16 Ua/ml; 37° C. for 18 h
Procedure: as §1, §2

[3] = system: Stomatococcus mucilagenosus; test: Agar surface assay, inhibitory spectrum; settings: 4 tested; 20 ul drops of preparation of titre 16 Ua/ml; 37° C. for 18 h
Procedure: as §1, §2

Streptococcus agalactiae = test: Agar surface assay, inhibitory spectrum; settings: 5 tested; 20 ul drops of preparation of titre 16 Ua/ml; 37° C. for 18 h
Procedure: as §1, §2

[4] = system: Streptococcus equisimilis; test: Agar surface assay, inhibitory spectrum; settings: 5 tested; 20 ul drops of preparation of titre 16 Ua/ml; 37° C. for 18 h
Procedure: as §1, §2

Streptococcus mutans = test: Agar surface assay, inhibitory spectrum; settings: 6 tested; 20 ul drops of preparation of titre 16 Ua/ml; 37° C. for 18 h
Procedure: as §1, §2

Streptococcus pneumoniae = test: Agar surface assay, inhibitory spectrum; settings: 4 tested; 20 ul drops of preparation of titre 16 Ua/ml; 37° C. for 18 h
Procedure: as §1, §2

Streptococcus pyogenes = test: Agar surface assay, inhibitory spectrum; settings: 15 tested; 20 ul drops of preparation of titre 16 Ua/ml; 37° C. for 18 h
Procedure: as §1, §2

Streptococcus sanguis = test: Agar surface assay, inhibitory spectrum; settings: 6 tested; 20 ul drops of preparation of titre 16 Ua/ml; 37° C. for 18 h
Procedure: as §1, §2

Streptococcus sobrinus = test: Agar surface assay, inhibitory spectrum; settings: 4 tested; 20 ul drops of preparation of titre 16 Ua/ml; 37° C. for 18 h
Procedure: as §1, §2

Q: How did the CFU killed [1] turn out when “salivaricin A2: BLIS co-expressed by S. salivarius K12 and K30, related but not identical to salivaricin A; sequence in FIG. 3 (KRGTGWFATITDDCPNSVFVCC; listed as Streptococcus salivarius)” was run?
A: Its CFU killed is “less than 10%”.

Q: And the “Number of strains sensitive” value (Branhamella catarrhalis)?
A: Its value is 0.

Q: And the “Number of strains sensitive” value [2]?
A: The value was 0.

Q: What about the “Number of strains sensitive” value (Escherichia coli) of the same substance?
A: The value was 0.

Q: And the “Number of strains sensitive” value (Lactobactillus casei)?
A: Its value is 1.

Q: And the “Number of strains sensitive” value (Staphylococcus aureus)?
A: The value was 0.

Q: And the “Number of strains sensitive” value [3]?
A: Its value is 0.

Q: What about the “Number of strains sensitive” value (Streptococcus agalactiae) of the same substance?
A: The value was 0.

Q: What about the “Number of strains sensitive” value [4] of the same substance?
A: Its value is 5.

Q: What about the “Number of strains sensitive” value (Streptococcus mutans) of the same substance?
A: Its value is 0.

Q: What about the “Number of strains sensitive” value (Streptococcus pneumoniae) of the same substance?
A: Its value is 1.

Q: What about the “Number of strains sensitive” value (Streptococcus pyogenes) of the same substance?
A: Its value is 15.

Q: What about the “Number of strains sensitive” value (Streptococcus sanguis) of the same substance?
A: The value was 0.

Q: What about the “Number of strains sensitive” value (Streptococcus sobrinus) of the same substance?
A: Its value is 0.
